In patent US11000033B2, “Ketone or oxime compound, and herbicide” (NISSAN CHEMICAL CORPORATION, priority 2014, dated 2021):

Columns and labels:
Format in all cases: in vivo
Monochoria vaginalis = assay: Test Example 1: herbicidal activity, application before weed generation in submerged conditions (symbol C); settings: application herbicide amount 320 g/ha
Outline: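 Application before weed emergence: an aqueous dilution of the emulsion formulation was poured onto the surface of 4 cm-deep floodwater on the day of sowing. Effect was judged after 3 weeks (greenhouse, 25–30 °C).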

Alopecurus myosuroides = assay: Test Example 4: herbicidal effect by soil treatment (symbol J)
Outline: (§1)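 Seeds were sown in sterilized diluvial soil, covered with about 1.5 cm of soil, and the soil surface was sprayed with a water-diluted emulsion of the compound at a predetermined rate. Plants grew in a greenhouse at 25° C. to 30° C.; effects were scored visually 3 weeks after application.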

Abutilon theophrasti = assay: Test Example 4: herbicidal effect by soil treatment (symbol M)
Outline: as §1

[1] = application herbicide amount 320 g/ha

Row | Compound | Herbicidal effect grade, C: Monochoria vaginalis (Monochoria vaginalis) | J: Alopecurus myosuroides, herbicidal effect grade (Alopecurus myosuroides; [1]) | M: Abutilon theophrasti, herbicidal effect grade (Abutilon theophrasti; [1]) | J (Alopecurus myosuroides) herbicidal effect grade (Alopecurus myosuroides; [1]) | M (Abutilon theophrasti) herbicidal effect grade (Abutilon theophrasti; [1]) | J: Alopecurus myosuroides, herbicidal effect grade (Alopecurus myosuroides; 320 g/ha) | M: Abutilon theophrasti, herbicidal effect grade (Abutilon theophrasti; 320 g/ha)
1 | CON=CC1CC(O)=C(c2c(C)cc(C)cc2C)C1=O (mixture of isomers) [3-001] | 0 (Herbicidal ratio of 5% or lower (almost no effect)) | 1 (Herbicidal ratio of 5% or higher and lower than 20%) | 0 (Herbicidal ratio of 5% or lower (almost no effect)) | – | – | – | –
2 | CON=C(C)C1CC(O)=C(c2c(C)cc(C)cc2C)C1=O (mixture of isomers) [3-002] | 0 (Herbicidal ratio of 5% or lower (almost no effect)) | 0 (Herbicidal ratio of 5% or lower (almost no effect)) | 0 (Herbicidal ratio of 5% or lower (almost no effect)) | – | – | – | –
3 | CCC(CCC1CC(O)=C(c2c(C)cc(C)cc2C)C1=O)=NOC (mixture of isomers) [4-001] | 0 (Herbicidal ratio of 5% or lower (almost no effect)) | 3 (Herbicidal ratio of 40% or higher and lower than 70%) | 0 (Herbicidal ratio of 5% or lower (almost no effect)) | – | – | – | –
4 | CON=C(C)CC1CC(O)=C(c2c(C)cc(-n3cc(Cl)cn3)cc2C)C1=O (mixture of isomers) [6-004] | 2 (Herbicidal ratio of 20% or higher and lower than 40%) | 5 (Herbicidal ratio of 90% or more (almost completely withered)) | 0 (Herbicidal ratio of 5% or lower (almost no effect)) | – | – | – | –
5 | CCc1cc(-n2cc(Cl)cn2)cc(C)c1C1=C(O)CC(CC(C)=NOC)C1=O (mixture of isomers) [6-005] | 3 (Herbicidal ratio of 40% or higher and lower than 70%) | 5 (Herbicidal ratio of 90% or more (almost completely withered)) | 0 (Herbicidal ratio of 5% or lower (almost no effect)) | – | – | – | –
6 | CC#Cc1cc(C)c(C2=C(O)CC(CC(C)=NOC)C2=O)c(CC)c1 (mixture of isomers) [6-006] | 1 (Herbicidal ratio of 5% or higher and lower than 20%) | 5 (Herbicidal ratio of 90% or more (almost completely withered)) | 4 (Herbicidal ratio of 70% or higher and lower than 90%) | – | – | – | –
7 | CCc1cc(C#C[Si](C)(C)C)cc(C)c1C1=C(O)CC(CC(C)=NOC)C1=O (mixture of isomers) [6-008] | 5 (Herbicidal ratio of 90% or more (almost completely withered)) | 4 (Herbicidal ratio of 70% or higher and lower than 90%) | 0 (Herbicidal ratio of 5% or lower (almost no effect)) | – | – | – | –
8 | CC#Cc1cc(C)c(C2=C(O)CC(CC(C)=NOC)C2=O)c(C)c1 (mixture of isomers) [6-009] | 0 (Herbicidal ratio of 5% or lower (almost no effect)) | 5 (Herbicidal ratio of 90% or more (almost completely withered)) | 5 (Herbicidal ratio of 90% or more (almost completely withered)) | – | – | – | –
9 | CON=C(C)CC1CC(O)=C(c2c(C)cc(C#CC3CC3)cc2C)C1=O (mixture of isomers) [6-010] | 1 (Herbicidal ratio of 5% or higher and lower than 20%) | 5 (Herbicidal ratio of 90% or more (almost completely withered)) | 3 (Herbicidal ratio of 40% or higher and lower than 70%) | – | – | – | –
10 | CON=C(C)CC1CC(O)=C(c2c(C)cc(-c3ccc(C(F)(F)F)cc3)cc2C)C1=O (mixture of isomers) [6-016] | 0 (Herbicidal ratio of 5% or lower (almost no effect)) | 0 (Herbicidal ratio of 5% or lower (almost no effect)) | 0 (Herbicidal ratio of 5% or lower (almost no effect)) | – | – | – | –
11 | CON=C(C)CC1CC(O)=C(c2c(C)cc(-c3ccc(OC)cc3)cc2C)C1=O (mixture of isomers) [6-017] | 0 (Herbicidal ratio of 5% or lower (almost no effect)) | – | 0 (Herbicidal ratio of 5% or lower (almost no effect)) | – | – | – | –
12 | CON=C(C)CC1CC(O)=C(c2c(C)cc(-c3ccc(C)cc3)cc2C)C1=O (mixture of isomers) [6-018] | 4 (Herbicidal ratio of 70% or higher and lower than 90%) | 5 (Herbicidal ratio of 90% or more (almost completely withered)) | 0 (Herbicidal ratio of 5% or lower (almost no effect)) | – | – | – | –
13 | CON=C(C)CC1CC(O)=C(c2c(C)cc(C#CCO)cc2C)C1=O (mixture of isomers) [6-025] | 0 (Herbicidal ratio of 5% or lower (almost no effect)) | 2 (Herbicidal ratio of 20% or higher and lower than 40%) | 0 (Herbicidal ratio of 5% or lower (almost no effect)) | – | – | – | –
14 | CON=C(C)CC1CC(O)=C(c2c(C)cc(-c3ccc(Cl)cc3)cc2C)C1=O (mixture of isomers) [6-029] | 3 (Herbicidal ratio of 40% or higher and lower than 70%) | 5 (Herbicidal ratio of 90% or more (almost completely withered)) | 0 (Herbicidal ratio of 5% or lower (almost no effect)) | – | – | – | –
15 | C=Cc1cc(C)c(C2=C(O)CC(CC(C)=NOC)C2=O)c(C)c1 (mixture of isomers) [6-031] | 0 (Herbicidal ratio of 5% or lower (almost no effect)) | 0 (Herbicidal ratio of 5% or lower (almost no effect)) | 0 (Herbicidal ratio of 5% or lower (almost no effect)) | – | – | – | –
16 | CON=C(C)CC1CC(O)=C(c2c(C)cc(-c3cccc(Cl)c3)cc2C)C1=O (mixture of isomers) [6-034] | 4 (Herbicidal ratio of 70% or higher and lower than 90%) | 5 (Herbicidal ratio of 90% or more (almost completely withered)) | 1 (Herbicidal ratio of 5% or higher and lower than 20%) | – | – | – | –
17 | CON=C(C)CC1CC(O)=C(c2c(C)cc(-c3ccc(Cl)nc3)cc2C)C1=O (mixture of isomers) [6-035] | 1 (Herbicidal ratio of 5% or higher and lower than 20%) | 4 (Herbicidal ratio of 70% or higher and lower than 90%) | 0 (Herbicidal ratio of 5% or lower (almost no effect)) | – | – | – | –
18 | C#CCOC1=C(c2c(C)cc(C)cc2C)C(=O)C(CC(C)=NOC)C1 (stereo not drawn) [1-008] | 0 (Herbicidal ratio of 5% or lower (almost no effect)) | – | – | 5 (Herbicidal ratio of 90% or more (almost completely withered)) | 0 (Herbicidal ratio of 5% or lower (almost no effect)) | – | –
19 | CON=C(C)CC1CC(OC(=O)c2ccccc2)=C(c2c(C)cc(C)cc2C)C1=O (stereo not drawn) [1-010] | 2 (Herbicidal ratio of 20% or higher and lower than 40%) | – | – | 5 (Herbicidal ratio of 90% or more (almost completely withered)) | 5 (Herbicidal ratio of 90% or more (almost completely withered)) | – | –
20 | CON=C(C)CC1CC(OCCSC)=C(c2c(C)cc(C)cc2C)C1=O (stereo not drawn) [1-011] | 0 (Herbicidal ratio of 5% or lower (almost no effect)) | – | – | 0 (Herbicidal ratio of 5% or lower (almost no effect)) | 0 (Herbicidal ratio of 5% or lower (almost no effect)) | – | –
21 | CON=C(C)CC1CC(OCC(=O)OC)=C(c2c(C)cc(C)cc2C)C1=O (stereo not drawn) [1-012] | 0 (Herbicidal ratio of 5% or lower (almost no effect)) | – | – | 0 (Herbicidal ratio of 5% or lower (almost no effect)) | 0 (Herbicidal ratio of 5% or lower (almost no effect)) | – | –
22 | CON=C(C)CC1CC(OCC#N)=C(c2c(C)cc(C)cc2C)C1=O (stereo not drawn) [1-013] | 0 (Herbicidal ratio of 5% or lower (almost no effect)) | – | – | 0 (Herbicidal ratio of 5% or lower (almost no effect)) | 0 (Herbicidal ratio of 5% or lower (almost no effect)) | – | –
23 | CON=C(C)CC1CC(OC(=O)OC)=C(c2c(C)cc(C)cc2C)C1=O (stereo not drawn) [1-014] | 2 (Herbicidal ratio of 20% or higher and lower than 40%) | – | – | 5 (Herbicidal ratio of 90% or more (almost completely withered)) | 4 (Herbicidal ratio of 70% or higher and lower than 90%) | – | –
24 | CON=C(C)CC1CC(OS(=O)(=O)CCCCl)=C(c2c(C)cc(C)cc2C)C1=O (stereo not drawn) [1-142] | 2 (Herbicidal ratio of 20% or higher and lower than 40%) | – | – | – | – | 5 (Herbicidal ratio of 90% or more (almost completely withered)) | 0 (Herbicidal ratio of 5% or lower (almost no effect))
25 | CON=C(C)CC1CC(OC(=O)N2CCCC2)=C(c2c(C)cc(C)cc2C)C1=O (stereo not drawn) [1-150] | 0 (Herbicidal ratio of 5% or lower (almost no effect)) | – | – | – | – | 5 (Herbicidal ratio of 90% or more (almost completely withered)) | –
26 | CON=C(C)CC1CC(OC(=O)C(C)Oc2ccc(Oc3ccc(Cl)cc3Cl)cc2)=C(c2c(C)cc(C)cc2C)C1=O (stereo not drawn) [1-163] | 0 (Herbicidal ratio of 5% or lower (almost no effect)) | – | – | – | – | 5 (Herbicidal ratio of 90% or more (almost completely withered)) | –
